{"source": "paper PMC6309945", "about": "(The FEBS journal, 2018)", "key": {"[1]": {"system": "human foreskin fibroblasts (HFF)", "test": "MTT cytotoxicity assay", "format": "cell-based"}, "plasmepsin II (PMII)": {"target": "plasmepsin II (PMII) (Plasmodium falciparum, UniProt P46925)", "sequence (P46925 125-453)": "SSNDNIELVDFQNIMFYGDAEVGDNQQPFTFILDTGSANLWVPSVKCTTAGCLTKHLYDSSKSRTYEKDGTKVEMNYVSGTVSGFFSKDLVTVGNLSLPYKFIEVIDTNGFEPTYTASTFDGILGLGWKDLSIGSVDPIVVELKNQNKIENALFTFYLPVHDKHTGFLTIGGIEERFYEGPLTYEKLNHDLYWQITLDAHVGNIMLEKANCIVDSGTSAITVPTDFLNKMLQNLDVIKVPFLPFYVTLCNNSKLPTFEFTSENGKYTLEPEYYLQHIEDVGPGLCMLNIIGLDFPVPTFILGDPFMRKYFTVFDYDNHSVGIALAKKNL", "test": "Fluorogenic substrate inhibition assay of mature soluble recombinant PMII", "format": "biochemical"}}, "note": "Non-standard residues stand in square brackets, D forms with d. Residues, ends and D or L forms follow the SMILES beside them. *: point of attachment. Sta = CC(C)C[C@H](N)[C@@H](O)CC(=O)O; Isovaleryl = CC(C)CC(=O)*"}
{"smiles": "Cc1cc(N(C)CCN(C)C)cc(C)c1OCC(=O)N[C@@H](Cc1ccccc1)[C@H](O)C(=O)N1CSC(C)(C)[C@H]1C(=O)N[C@H]1c2ccccc2C[C@H]1O", "note": "[KNI-10743]", "values": [{"measurement": "Cytotoxicity (cell viability, MTT)", "setting": "[1]; highest concentration tested 25 µM, continuous exposure for 2 consecutive days", "result": "no significant cytotoxicity"}, {"measurement": "Morphology of cells", "setting": "[1]; light microscopy, compared to cisplatin-treated cells", "result": "remains intact"}]}
{"smiles": "CC(C)CC(=O)N[C@H](C(=O)N[C@H](C(=O)N[C@@H](CC(C)C)[C@@H](O)CC(=O)N[C@@H](C)C(=O)N[C@@H](CC(C)C)[C@@H](O)CC(=O)O)C(C)C)C(C)C", "note": "[Pepstatin A] (Isovaleryl-VV[Sta]A[Sta]-OH)", "values": [{"measurement": "Ki", "setting": "plasmepsin II (PMII)", "result": 0.07, "unit": "nM"}]}
